Measured values reported in patent publication US20030129222A1, “Liposomal imexon” (priority 2000, published 2003).
Counter-ions that a name gives are not always drawn. Like-named read-outs stand apart in the source and are kept apart here. Starred links: 1 amine or outer side, 2 acyl side, 3 side chain; linkers in the order of their positions; H or OH if unused. Positions of bridges follow the written chain, without caps; N, C: chain ends. Non-standard residues stand in square brackets, D forms with d. Residues, ends and D or L forms follow the SMILES beside them. Chains are numbered I, II in the order given. Actinocin(9to1) = Cc1c2oc3c(C)ccc(C(=O)[*:1])c3nc-2c(C(=O)[*:2])c(N)c1=O; NMeV = CN[C@H](C(=O)O)C(C)C; Sar = CNCC(=O)O

How the values were obtained:
[1] = test system: 8226 myeloma, Res (imexon-resistant); assay: Cytotoxicity in tumor cell culture, SRB assay; assay type: cell-based; details: line made resistant to imexon; read-out: IC50 against human mouse tumors, 8226 myeloma Res
From the text: (§1) Relative potencies of the N-substituted 2-cyanoaziridine-1-carboxamides in a panel of tumor cell cultures are compared in Table 3. This panel includes the following lines of human tumor cells: sensitive and imexon-resistant lines of multiple myeloma (Matsuoka et al., 1967); ovarian carcinoma resistant to standard drugs (Hamilton et al., 1984); melanoma with a slow growth fraction (Girard et al., 1973); breast carcinoma including sensitive, doxorubicin-resistant (P-glycoprotein-positive) (Taylor et al., 1991), and mitoxantrone-resistant (P-glycoprotein-negative) (Futscher et al., 1994) lines; sensitive and multidrug-resistant colon carcinoma (Noguchi et al., 1979; Dalton et al., 1988); and multidrug-resistant lung carcinoma (P-glycoprotein-negative) (Girard et al., 1973). It also has sensitive (Goldin et al., 1961) and multidrug-resistant (P-glycoprotein-positive) (Salmon and Hersh, 1994) murine L1210 leukemia cells.

[2] = test system: WiDr colon, res; assay: Cytotoxicity in tumor cell culture, SRB assay; assay type: cell-based; details: multidrug-resistant; read-out: IC50 against human mouse tumors, WiDr colon res
From the text: as §1

[3] = test system: WiDr colon, Sens; assay: Cytotoxicity in tumor cell culture, SRB assay; assay type: cell-based; details: read-out: IC50 against human mouse tumors, WiDr colon Sens
From the text: as §1

[4] = test system: A-549 lung; assay: Cytotoxicity in tumor cell culture, SRB assay; assay type: cell-based, human; details: read-out: IC50 against human mouse tumors, A-549 lung
From the text: as §1

[5] = test system: MCF7 breast, Sens; assay: Cytotoxicity in tumor cell culture, SRB assay; assay type: cell-based, human; details: read-out: IC50 against human mouse tumors, MCF7 breast Sens
From the text: as §1

[6] = test system: OVCAR3 ovarian; assay: Cytotoxicity in tumor cell culture, SRB assay; assay type: cell-based, human; details: read-out: IC50 against human mouse tumors, OVCAR3 ovarian
From the text: as §1

[7] = test system: A375 melan; assay: Cytotoxicity in tumor cell culture, SRB assay; assay type: cell-based, human; details: read-out: IC50 against human mouse tumors, A375 melan
From the text: as §1

[8] = test system: MCF7 breast, mitox (mitoxantrone-resistant); assay: Cytotoxicity in tumor cell culture, SRB assay; assay type: cell-based, human; details: mitoxantrone-resistant; read-out: IC50 against human mouse tumors, MCF7 breast mitox
From the text: as §1

[9] = test system: 8226 myeloma, Sens (drug-sensitive); assay: Cytotoxicity in tumor cell culture, SRB assay; assay type: cell-based, human
From the text: as §1

[10] = test system: MCF7 breast, Dox (doxorubicin-resistant); assay: Cytotoxicity in tumor cell culture, SRB assay; assay type: cell-based, human; details: doxorubicin-resistant; read-out: IC50 against human mouse tumors, MCF7 breast Dox
From the text: as §1

[11] = test system: L1210 leukemia, Sens; assay: Cytotoxicity in tumor cell culture, MTT assay; assay type: cell-based, murine; details: MTT assay; read-out: IC50 against human mouse tumors, L1210 leukemia Sens
From the text: as §1

[12] = test system: L1210 leukemia, Mdr; assay: Cytotoxicity in tumor cell culture, MTT assay; assay type: cell-based, murine; details: MTT assay, multidrug-resistant; read-out: IC50 against human mouse tumors, L1210 leukemia Mdr
From the text: as §1

[13] = substituent constant, from Hansch and Leo or calculated using Clog P software; cited from earlier work
[14] = cited from earlier work
[15] = drug-sensitive line, read-out: IC50 against human mouse tumors, 8226 myeloma Sens
[16] = against sensitive myeloma, values repeated from Table 3 (μM there), read-out: IC50
[17] = single oral doses of about 0.6 mg/kg to about […]
[18] = intravenous injection, after distribution

| SMILES | IC50 [1] [µM] | IC50 [2] [µM] | IC50 [3] [nM] | IC50 [4] [µM] | IC50 [5] [nM] | IC50 [6] [µM] | IC50 [7] [µM] | IC50 [8] [µM] | IC50 [9, 15] [µM] | IC50 [10] [nM] | IC50 [11] [µM] | IC50 [12] [µM] | oral absorption ([14]; in vivo) | also measured |
| --- | --- | --- | --- | --- | --- | --- | --- | --- | --- | --- | --- | --- | --- | --- |
| N#CC1CN1C(=O)Nc1ccc(S(N)(=O)=O)cc1 (stereo not shown) [Compound 22, 2-Cyanoaziridine-1-[N-(4-sulfamylphenyl)]carboxamide] | > 38 | > 38 | > 38000 | > 38 | > 15000 | 188 | 188 | > 15 | > 38 | > 15000 | > 38 | > 38 |  |  |
| N#CC1CN1C(=O)Nc1ccc(F)cc1 (stereo not shown) [Compound 14, 2-Cyanoaziridine-1-[N-(4-fluorophenyl)]carboxamide] | 5.9 | 9 | 2100 | 6.2 | 1900 | 5.9 | 3.4 | 2.7 | 5 | 2400 | 7.3 | 5.9 |  | Log(1/C) ([9]; against sensitive myeloma): 5.30; IC50 [9, 16]: 5 µM; π [13]: 2.14 |
| CCOC(=O)c1ccc(NC(=O)N2CC2C#N)cc1 (stereo not shown) [Compound 19, 2-Cyanoaziridine-1-[N-(4-ethoxycarbonylphenyl)]carboxamide] | 3 | 4.2 | 2500 | 2.9 | 2300 | 7.7 | 5.8 | 3.3 | 3 | 2100 | 9.7 | 9.7 |  |  |
| CC(C)(C)NC(=O)N1CC1C#N (stereo not shown) [Compound 9, 2-Cyanoaziridine-1-(N-t-butyl) carboxamide] | 216 | > 300 | 180000 | 180 | > 300000 | 186 | 418 | 120 | 120 | 190000 | 132 | 457 |  | Log(1/C) ([9]; against sensitive myeloma): 3.92; IC50 [9, 16]: 120 µM; π [13]: 1.98 |
| N#CC1CN1C(=O)Nc1ccc(C(F)(F)F)cc1 (stereo not shown) [Compound 15, 2-Cyanoaziridine-1-[N-(4-trifluorophenyl)]carboxamide] | 7.8 | 5.8 | 1300 | 4.3 | 1500 | 5.9 | 11.8 | 1.3 | 8.2 | 1400 | 7.8 | 7.1 |  | Log(1/C) ([9]; against sensitive myeloma): 5.09; IC50 [9, 16]: 8.2 µM; π [13]: 2.88 |
| O=C(O)CCCc1ccc(N(CCCl)CCCl)cc1 [Chlorambucil, 4-[bis(2-chlorethyl)amino] benzenebutanoic acid] |  |  |  |  |  |  |  |  |  |  |  |  | rapidly and completely absorbed | terminal half-life of the parent drug [14, 17]: about 1.5 hours; time to peak plasma chlorambucil levels [14, 17]: one |
| COc1cccc2c1C(=O)c1c(O)c3c(c(O)c1C2=O)C[C@@](O)(C(C)=O)C[C@@H]3O[C@H]1C[C@H](N)[C@H](O)[C@H](C)O1 [Daunorubicin, 5,12-Naphthacenedione, (8S-cis)-8-acetyl-10-[(3-amino-2,3,6-trideoxy-a-L-lyxo-hexanopyranosyl)oxy]-7,8,9,10-tetrahydro-6,8,11-trihydroxy-10-methoxy-, hydrochloride] |  |  |  |  |  |  |  |  |  |  |  |  | poor | half-life of elimination ([14]; in vivo): about 19 hours |
| N#CC1CN1C(=O)Nc1ccc(Cl)cc1Cl (stereo not shown) [Compound 17, 2-Cyanoaziridine-1-[N-(2,4-dichlorophenyl)]carboxamide] | 9.4 | 1.9 | 2200 | 2.5 | 900 | 35 | > 39 | 0.35 | 4.7 | 1100 | 207 | 33 |  | Log(1/C) ([9]; against sensitive myeloma): 5.33; IC50 [9, 16]: 4.7 µM; π [13]: 3.42 |
| COc1cccc2c1C(=O)c1c(O)c3c(c(O)c1C2=O)C[C@@](O)([C@H](C)O)C[C@@H]3O[C@H]1C[C@H](N)[C@H](O)[C@H](C)O1 [daunorubicinol] |  |  |  |  |  |  |  |  |  |  |  |  |  | half-life of active metabolite ([14]; metabolite of daunorubicin): about 27 hours |
| CC[C@]1(O)C[C@H]2CN(CCc3c([nH]c4ccccc34)[C@@](C(=O)OC)(c3cc4c(cc3OC)N(C=O)[C@H]3[C@@](O)(C(=O)OC)[C@H](OC(C)=O)[C@]5(CC)C=CCN6CC[C@]43[C@@H]65)C2)C1 [Vincristine] |  |  |  |  |  |  |  |  |  |  |  |  | Unpredictable absorption | terminal half-life ([14]; plasma): about 24 hours |
| CCOC(=O)CNC(=O)N1CC1C#N (stereo not shown) [Compound 12] | 30 | 33 | 31000 | 24 | 15000 |  | 51 | 11 | 25 | 17000 | 13 | 13 |  | Log(1/C) ([9]; against sensitive myeloma): 4.60; IC50 [9, 16]: 25 µM; π [13]: 1.01 |
| O=NN(CCCl)C(=O)NC1CCCCC1 [Lomustine, 1-(2-chloro-ethyl)-3-cyclohexyl-1 nitrosourea] |  |  |  |  |  |  |  |  |  |  |  |  |  | radioactivity excreted in the form of degradation products within 24 hours ([14]; oral radioactive lomustine, about 30 mg/m^2 to 100 mg/m^2): about half |
| Cc1c2oc3c(C)ccc(C(=O)N[C@@H]4C(=O)N[C@H](C(C)C)C(=O)N5CCC[C@H]5C(=O)N(C)CC(=O)N(C)[C@@H](C(C)C)C(=O)O[C@@H]4C)c3nc-2c(C(=O)N[C@@H]2C(=O)N[C@H](C(C)C)C(=O)N3CCC[C@H]3C(=O)N(C)CC(=O)N(C)[C@@H](C(C)C)C(=O)O[C@@H]2C)c(N)c1=O [Actinomycin D] (I: T[dV]P[Sar][NMeV] / II: T[dV]P[Sar][NMeV]; ester I:1-I:C, II:1-II:C; linker I:N-II:N via Actinocin(9to1)) |  |  |  |  |  |  |  |  |  |  |  |  |  | dose excreted intact into the bile ([14]; in vivo): Half; dose excreted intact into the urine ([14]; in vivo): 10%; half-life ([14]; in vivo): about 36 hours; passage of the blood-brain barrier ([14]; in vivo): does not pass the blood-brain barrier |
| N.N.[Cl][Pt][Cl] [Cisplatin] |  |  |  |  |  |  |  |  |  |  |  |  | not absorbed orally |  |
| COc1cccc2c1C(=O)c1c(O)c3c(c(O)c1C2=O)C[C@@](O)(C(=O)CO)C[C@@H]3O[C@H]1C[C@H](N)[C@H](O)[C@H](C)O1 [Doxorubicin, 5,12-Naphthacenedione, (8s-cis)-10-[(3-amino-2,3,6-trideoxy-a-L-lyxo-hexopyranosyl)oxy]-7,8,9,10-tetrahydro-6,8,11-trihydroxy-8-(hydroxyacetyl)-1-methoxy-hydrochloride] |  |  |  |  |  |  |  |  |  |  |  |  | absorbed poorly | elimination half-life ([14]; in vivo): about 30 hours |
| CC[C@]1(O)C[C@@H]2CN(CCc3c([nH]c4ccccc34)[C@@](C(=O)OC)(c3cc4c(cc3OC)N(C)[C@H]3[C@@](O)(C(=O)OC)[C@H](OC(C)=O)[C@]5(CC)C=CCN6CC[C@]43[C@@H]65)C2)C1 [Vinblastine] |  |  |  |  |  |  |  |  |  |  |  |  | Unpredictable absorption | dose recovered in the feces after biliary excretion ([14]; in vivo): about 10%; plasma half-life, first [14, 18]: approximately 1 hours; plasma half-life, second [14, 18]: ~20 h |
| CC(=O)c1cccc(NC(=O)N2CC2C#N)c1 (stereo not shown) [Compound 20, 2-Cyanoaziridine-1-[N-(3-acetylphenyl)]carboxamide] | > 39 | > 41 | 40000 | > 41 | > 16000 | > 39 | > 39 | > 16 | > 39 | > 16000 | > 39 | > 39 |  |  |
